Tests used:
JMJD3 = assay: Jmjd3 enzyme activity in nuclear fraction; type: biochemical, rat; conditions: VC 200 μM, 4 days of proliferation
Description: TET and JMJD3 activities were measured using Epigenase™ 5mC hydroxylase TET Activity/Inhibition Assay Kit and Epigenase™ JMJD3/UTX Demethylase Activity/Inhibition Assay Kit (Epigentek, Farmingdale, N.Y.), respectively. Briefly, cells from two 10 cm-dishes were harvested after 4 days of proliferation with or without VC (200 μM) treatment. Nuclear fractions were obtained from the cells using the EpiQuik nuclear extraction kit (Epigentek), and subjected to enzyme activity analyses.

[1] = test system: GAD67, TPH2 and GFAP promoters; assay: DIP-qPCR and ChIP-qPCR on GAD67, TPH2 and GFAP promoters; type: cell-based, rat; conditions: VC administration to proliferating VM-NSCs
From the text: Foxa2 and Nurr1 binding sites were identified using the Jaspar database (http://jaspar.genereg.net/) using an 80% score threshold. Predicted Foxa2 and Nurr1 binding sites were coupled with phylogenetic footprinting to eliminate spurious predictions with specified position weight matrix (PWM) settings, as described in the following reference. [Sandelin, A., and Wasserman, W. W. (2004). Constrained binding site diversity within families of transcription factors enhances pattern discovery bioinformatics. Journal of molecular biology 338, 207-215] (Table 2). ChIP and DIP assays were carried out as described in the following reference. [Prolonged membrane depolarization enhances midbrain dopamine neuron differentiation via epigenetic histone modifications. Stem Cells 29, 1861-1873]. Briefly, chromatin or genomic DNA was sheared to an average of 200-500 bp in length using a sonication Bioruptor (BMS, Seoul, Korea) and immunoprecipitated using the antibodies listed in Table 1. Immunoprecipitated DNA fragments were collected using magnetic beads (Invitrogen), purified, and subjected to real-time PCR using the primers listed in Table 3. The comparative cycle threshold method was used to quantify the results. Data were normalized to the input DNA.

[2] = test system: human NSCs derived from hESCs (H9); assay: VC treatment in human NSC cultures derived from hESCs (H9); type: cell-based
Description: NSCs were cultured from rat embryo VMs (Sprague Dawley) at embryonic day 12 (E12) on 6-cm dishes or 24-well plates pre-coated with 15 μg/ml poly-L-ornithine (PLO; Sigma)/1 ug/ml fibronectin (FN; Sigma, St. Louis, Mo.) in serum-free N2 medium. NSCs were induced to proliferate by the mitogenic action of basic fibroblast growth factor (bFGF, 20 ng/ml, R&D Systems, Minneapolis, Minn.). The proliferating VM-NSCs cultured in 6-cm dishes were passaged at every 4th day in mitogen-supplemented medium with or without Vitamin C (VC; Sigma; 200 μM), glutathione reduced form (GSH; Sigma; 200 μM), vitamin E (alpha-tocopherol; Sigma; 200 μM), or N-acetylcysteine (NAc; Sigma; 100 μM). The expanded NSCs at the last day of each passage were induced to differentiate by withdrawing the mitogen and antioxidants from the media (for 2-16 days). Human NSC cultures were derived by in vitro differentiation of hESCs (H9) and cultured as described in the following reference. [Rhee, Y. H., Ko, J. Y., Chang, M. Y., Yi, S. H., Kim, D., Kim, C. […] The human NSCs were expanded in ITS media supplemented with bFGF (20 ng/ml) in the presence or absence of VC for two NSC passages. Differentiation of the passaged human NSCs was induced by withdrawal of bFGF and VC in ITS supplemented with brain-derived neurotrophic factor (20 ng/ml; R&D Systems), glial cell line derived neurotrophic factor (20 ng/ml; R&D Systems), and dibutyryl cAMP (0.5 mmol/1; Sigma). Cultures were maintained at 37° C. in humidified 5% CO2 incubators.
The cell growth profile during NSC expansion with several cell passages was generated by counting the number of viable cells at the end of each passage. Cell expansion of each NSC passage was further estimated by the population doubling level (PDL, the level at which the number of cells is doubled), which was determined by log(N/NO)/log 2 (where N is the number of cells at the end of each passage; NO is the number of cells plated initially (1×10^5 cells/cm^2)). DA neuronal cell survival in the absence or presence of toxic insults (500-1000 uM of H2O2 or 6-OHDA) was determined by counting viable TH^+ cells after staining. General cell death and DNA damage were estimated by ethidium heterodimer 1 (EthD1) (Molecular Probes) and γH2AX staining, respectively.
To estimate morphological maturation, total fiber lengths emanating from TH+DA neuronal cells were measured. The pre-synaptic activity of DA neurons was determined by measuring the levels of DA neurotransmitter released in the differentiated VM-NSC cultures. Media incubated for 2 days (differentiation day 13-15) were collected and used in the DA level determinations using an ELISA kit (BA E-5300, LDN). […] The evoked DA release was calculated by subtracting the DA release without KCl from the DA level with KCl.

[3] = test system: TH+ DA neurons differentiated from VM-NSCs; assay: Co-expression of midbrain-specific markers in differentiated TH+ DA neurons; type: cell-based, rat; conditions: P1 cultures treated with VC during expansion, D6
Description: Cultured cells and cryosectioned brain slices were fixed with 4% paraformaldehyde (PFA), and blocked for 40 minutes in blocking solution (Blocking solution: 1% BSA+0.3% Triton X-100). For 5hmC and 5mC staining, the fixed cells were incubated with 2 N HCl for 20 minutes before the blocking reaction. The samples were incubated overnight at 4° C. in the blocking solution containing the primary antibodies listed in Supplemental Table 1. Secondary antibodies tagged with Alexa 488 (1:200, Invitrogen, Carlsbad, Calif.) and Cy3 (1:200, Jackson Immunoresearch Laboratories, West Grove, Pa.) were applied. Stained samples were mounted in Vectashield medium containing 40,6-diamidino-2-phenylindole (DAPI; Vector Laboratories, West Grove, Pa.) and analysed under an epifluorescence (Leica, Wetzlar, Germany) or confocal microscope (Leica TSP SP5).
Immunostained cells were counted in 10-20 random areas of each culture coverslip using an eyepiece grid at a magnification of 200×. Data are expressed as the mean±SEM of three to eight independent cultures. For every figure, statistical tests are justified as appropriate. Statistical comparisons were made using Student's t-test (unpaired) or one-way ANOVA followed by Tukey's post hoc analysis using SPSS® Statistics 21; IBM Inc. The relevant n, P-values, and statistical analysis methods are indicated in each figure legend.

O=C1O[C@H]([C@@H](O)CO)C(O)=C1O [VC, L-ascorbic acid]
Jmjd enzyme activity in nuclear fractions (JMJD3): increase | epigenetic codes on TPH2 and GAD67 genes [1]: did not affect | TH+ DA neuronal yields ([2]; VC-treated human NSCs, D6): significantly enhanced | neurite branching of TH+ cells ([2]; compared to untreated control cultures, D15): more extensive neurite branching | differentiating/differentiated cell survival ([2]; hESC-NSC cultures, VC during proliferation, D6): greatly promoted | TH mRNA expression ([2]; qRT-PCR): increase | TH+ DA neurons expressing Foxa2 [3]: 98% | TH+ DA neurons expressing Lmx1a [3]: 91% | TH+ DA neurons expressing Nurr1 [3]: 93%

Reference: US20190183939A1, “CELL THERAPY USING MIDBRAIN-TYPE NEURAL STEM CELLS TREATED WITH VITAMIN C” (INDUSTRY-UNIVERSITY COOPERATION FOUNDATION HANYANG …, priority 2017, published 2019)
